In patent publication US20230192878A1, “METHODS, THERAPIES AND USES FOR TREATING CANCER” (PFIZER INC., priority 2020, published 2023):

Columns and labels:
H929 = assay: Cell surface BCMA expression after GSI, concentration series; type: cell-based; conditions: 24 hours
Method: (§1) Multiple myeloma cells (MM.1S, OPM2, H929, Molp8, RPMI8226) were seeded in a 96-well U bottom plate at 40,000 cells/well. Cells were incubated for 24 hours in the presence of GSI diluted in RPMI (0.1% DMSO). The following concentrations of the GSI were tested: 1000 nM, 500 nM, 100 nM, 50 nM, 25 nM, 10 nM, 5 nM, 2.5 nM, 1 nM, 0.1 nM, 0.01 nM. 24 hours later cells were collected and washed with PBS+2% FBS, followed by staining with ZombieNIR Viability Dye (Biolegend) at 1 in 500 dilution in PBS at room temperature for 20 minutes. Next, cells were washed with PBS+2% FBS and stained with anti-BCMA PE-labelled antibody (Biolegend) diluted in PBS+2% FBS for 30 minutes at 4° C. Cells were acquired on BD Flow Cytometer and analyzed using FlowJo flow cytometry analysis software. Dead cells were removed from analysis by gating on ZombieNIR negative population. BCMA mean fluorescence intensity (MFI) was plotted against GSI concentration to establish EC50.

MM.1S = assay: as above; type: cell-based; conditions: 24 hours
Method: as §1

Molp8 = assay: as above; type: cell-based; conditions: 24 hours
Method: as §1

OPM2 = assay: as above; type: cell-based; conditions: 24 hours
Method: as §1

RPMI8226 = assay: as above; type: cell-based; conditions: 24 hours
Method: as §1

MM.1S-Luc-PD-L1 = assay: Orthotopic MM.1S-Luc-PD-L1 multiple myeloma mouse model; type: in vivo, NSG mice; conditions: bispecific 10 μg/kg IV once (day 21), anti-PD-1 5 mg/kg IP twice a week
Method: MM.1 S-Luc multiple myeloma cells were engineered to express PD-L1 and are referred to as MM.1S-Luc-PD-L1. MM.1S-Luc-PD-L1 cells were prepared as a single cell suspension of 5×10^6 cells for intravenous (IV) inoculation into NSG mice.
Tumor growth was monitored by luminescent imaging by intraperitoneal (IP) injection of luciferin solution in DPBS and imaged using Perkin Elmer IVIS Spectrum camera system. Animals were administered 2×10^7 expanded human T cells IV 19 days after tumor cell inoculation. Two days following T cell administration, a single dose of the BCMAxCD3 bispecific (10 μg/kg) was administered as a bolus IV injection. Anti-PD-1 antibody was administered twice a week as a bolus IP injection at 5 mg/kg for a total of 6 injections.
Tumor growth was monitored via imaging measurements collected twice weekly. Mice were imaged using the Perkin Elmer IVIS Spectrum camera system with automatic parameter determination and a maximum imaging time of 3 minutes. Living Image software was used to collect the data. Regions of Interest (ROIs) were drawn around the entire body of the mouse, excluding as much as possible of the tail. Background flux, as measured on the anesthesia manifold, is subtracted from each ROI. Tumor measurements are expressed as total flux expressed in photons/sec (p/s). Study was terminated at day 40 post tumor inoculation.

MM.1S-PD-L1 = assay: Subcutaneous MM.1S-PD-L1 multiple myeloma mouse model; type: in vivo; conditions: alone or +anti-PD-1 5 mg/kg, dosing from Day 21
Method: MM.1S multiple myeloma cells were engineered to express PD-L1 and are referred to as MM.1S-PD-L1. Pre-activated and expanded T cells (20×10^6) were administered on Day 19 after MM.1S-PDL1 tumor cell inoculation subcutaneously (SC). BCMAxCD3 bispecific (0.3 or 1 mg/kg) or negative bispecific (1 mg/kg) was administered IV on Day 21 and dosed Q7Dx3. Anti-PD-1 mAb was administered at 5 mg/kg intraperitoneally (IP) twice a week starting on Day 21. Tumor measurements were recorded 2 to 3 times a week using digital calipers. N (at study start) is 5-12 animals per group.

## CCC[C@H](N[C@H]1CCc2cc(F)cc(F)c2C1)C(=O)Nc1cn(C(C)(C)CNCC(C)(C)C)cn1 [GSI, nirogacestat]
H929; H929, GSI 0.01 nM
  BCMA (-PE) MFI: 4824.5
H929; H929, GSI 0.1 nM
  BCMA (-PE) MFI: 5305.5
H929; H929, GSI 1 nM
  BCMA (-PE) MFI: 8615.5
H929; H929, GSI 2.5 nM
  BCMA (-PE) MFI: 10344.5
H929; H929, GSI 5 nM
  BCMA (-PE) MFI: 13226
H929; H929, GSI 10 nM
  BCMA (-PE) MFI: 15670
H929; H929, GSI 25 nM
  BCMA (-PE) MFI: 18445.5
H929; H929, GSI 50 nM
  BCMA (-PE) MFI: 17424.5
H929; H929, GSI 100 nM
  BCMA (-PE) MFI: 19455.5
H929; H929, GSI 500 nM
  BCMA (-PE) MFI: 20285.5
H929; H929, GSI 1000 nM
  BCMA (-PE) MFI: 21156
MM.1S; GSI 0.01 nM
  BCMA (-PE) MFI: 15589.5
MM.1S; GSI 0.1 nM
  BCMA (-PE) MFI: 15775.5
MM.1S; GSI 1 nM
  BCMA (-PE) MFI: 14396
MM.1S; GSI 2.5 nM
  BCMA (-PE) MFI: 21412.5
MM.1S; GSI 5 nM
  BCMA (-PE) MFI: 28832
MM.1S; GSI 10 nM
  BCMA (-PE) MFI: 31248
MM.1S; GSI 25 nM
  BCMA (-PE) MFI: 37026.5
MM.1S; GSI 50 nM
  BCMA (-PE) MFI: 38111
MM.1S; GSI 100 nM
  BCMA (-PE) MFI: 37582.5
MM.1S; GSI 500 nM
  BCMA (-PE) MFI: 35780
MM.1S; GSI 1000 nM
  BCMA (-PE) MFI: 35780
Molp8; Molp8, GSI 0.01 nM
  BCMA (-PE) MFI: 1191.5
Molp8; Molp8, GSI 0.1 nM
  BCMA (-PE) MFI: 1242.5
Molp8; Molp8, GSI 1 nM
  BCMA (-PE) MFI: 1288.5
Molp8; Molp8, GSI 2.5 nM
  BCMA (-PE) MFI: 1401
Molp8; Molp8, GSI 5 nM
  BCMA (-PE) MFI: 1761.5
Molp8; Molp8, GSI 10 nM
  BCMA (-PE) MFI: 2183.5
Molp8; Molp8, GSI 25 nM
  BCMA (-PE) MFI: 3691
Molp8; Molp8, GSI 50 nM
  BCMA (-PE) MFI: 5120
Molp8; Molp8, GSI 100 nM
  BCMA (-PE) MFI: 5412
Molp8; Molp8, GSI 500 nM
  BCMA (-PE) MFI: 5640.5
Molp8; Molp8, GSI 1000 nM
  BCMA (-PE) MFI: 6401
OPM2; OPM2, GSI 0.01 nM
  BCMA (-PE) MFI: 2093.5
OPM2; OPM2, GSI 0.1 nM
  BCMA (-PE) MFI: 2079.5
OPM2; OPM2, GSI 1 nM
  BCMA (-PE) MFI: 2185
OPM2; OPM2, GSI 2.5 nM
  BCMA (-PE) MFI: 2358.5
OPM2; OPM2, GSI 5 nM
  BCMA (-PE) MFI: 2788.5
OPM2; OPM2, GSI 10 nM
  BCMA (-PE) MFI: 3190.5
OPM2; OPM2, GSI 25 nM
  BCMA (-PE) MFI: 6575.5
OPM2; OPM2, GSI 50 nM
  BCMA (-PE) MFI: 10863
OPM2; OPM2, GSI 100 nM
  BCMA (-PE) MFI: 14364
OPM2; OPM2, GSI 500 nM
  BCMA (-PE) MFI: 15910.5
OPM2; OPM2, GSI 1000 nM
  BCMA (-PE) MFI: 14747.5
RPMI8226; RPMI8226, GSI 0.01 nM
  BCMA (-PE) MFI: 10028
RPMI8226; RPMI8226, GSI 0.1 nM
  BCMA (-PE) MFI: 10099
RPMI8226; RPMI8226, GSI 1 nM
  BCMA (-PE) MFI: 10483.5
RPMI8226; RPMI8226, GSI 2.5 nM
  BCMA (-PE) MFI: 10226.5
RPMI8226; RPMI8226, GSI 5 nM
  BCMA (-PE) MFI: 10589.5
RPMI8226; RPMI8226, GSI 10 nM
  BCMA (-PE) MFI: 11181.5
RPMI8226; RPMI8226, GSI 25 nM
  BCMA (-PE) MFI: 12617
RPMI8226; RPMI8226, GSI 50 nM
  BCMA (-PE) MFI: 13190.5
RPMI8226; RPMI8226, GSI 100 nM
  BCMA (-PE) MFI: 13416
RPMI8226; RPMI8226, GSI 500 nM
  BCMA (-PE) MFI: 13464.5
RPMI8226; RPMI8226, GSI 1000 nM
  BCMA (-PE) MFI: 14362

## PF-06863135: heterodimeric humanized full-length bispecific antibody with one BCMA binding arm and one CD3 binding arm
MM.1S-Luc-PD-L1; day 15 post tumor cell inoculation
  Tumor measurements expressed as total flux: 1.513 × 10^7 p/s
MM.1S-Luc-PD-L1; day 18 post tumor cell inoculation
  Tumor measurements expressed as total flux: 8.343 × 10^7 p/s
MM.1S-Luc-PD-L1; day 20 post tumor cell inoculation
  Tumor measurements expressed as total flux: 1.788 × 10^8 p/s
MM.1S-Luc-PD-L1; day 25 post tumor cell inoculation
  Tumor measurements expressed as total flux: 2.2729 × 10^7 p/s
MM.1S-Luc-PD-L1; day 28 post tumor cell inoculation
  Tumor measurements expressed as total flux: 7.082 × 10^7 p/s
MM.1S-Luc-PD-L1; day 32 post tumor cell inoculation
  Tumor measurements expressed as total flux: 7.076 × 10^7 p/s
MM.1S-PD-L1; day 14 post tumor cell inoculation, BCMA × CD3 bispecific 0.3 mg/kg
  Tumor Volume ± SEM: 34.4 ± 9.5 mm^3
MM.1S-PD-L1; day 14 post tumor cell inoculation, BCMA × CD3 bispecific 1 mg/kg
  Tumor Volume ± SEM: 26.4 ± 7.5 mm^3
MM.1S-PD-L1; day 18 post tumor cell inoculation, BCMA × CD3 bispecific 0.3 mg/kg
  Tumor Volume ± SEM: 91.6 ± 18 mm^3
MM.1S-PD-L1; day 18 post tumor cell inoculation, BCMA × CD3 bispecific 1 mg/kg
  Tumor Volume ± SEM: 92 ± 17.1 mm^3
MM.1S-PD-L1; day 20 post tumor cell inoculation, BCMA × CD3 bispecific 0.3 mg/kg
  Tumor Volume ± SEM: 122.5 ± 20.7 mm^3
MM.1S-PD-L1; day 20 post tumor cell inoculation, BCMA × CD3 bispecific 1 mg/kg
  Tumor Volume ± SEM: 130.7 ± 24.6 mm^3
MM.1S-PD-L1; day 25 post tumor cell inoculation, BCMA × CD3 bispecific 0.3 mg/kg
  Tumor Volume ± SEM: 403 ± 59 mm^3
MM.1S-PD-L1; day 25 post tumor cell inoculation, BCMA × CD3 bispecific 1 mg/kg
  Tumor Volume ± SEM: 601.1 ± 70^ mm^3
MM.1S-PD-L1; day 28 post tumor cell inoculation, BCMA × CD3 bispecific 0.3 mg/kg
  Tumor Volume ± SEM: 403.3 ± 67.6 mm^3
MM.1S-PD-L1; day 28 post tumor cell inoculation, BCMA × CD3 bispecific 1 mg/kg
  Tumor Volume ± SEM: 482.9 ± 32.6 mm^3
MM.1S-PD-L1; day 32 post tumor cell inoculation, BCMA × CD3 bispecific 0.3 mg/kg
  Tumor Volume ± SEM: 603.6 ± 151.6 mm^3
MM.1S-PD-L1; day 32 post tumor cell inoculation, BCMA × CD3 bispecific 1 mg/kg
  Tumor Volume ± SEM: 410.5 ± 82.7 mm^3
MM.1S-PD-L1; day 35 post tumor cell inoculation, BCMA × CD3 bispecific 0.3 mg/kg
  Tumor Volume ± SEM: 835.1 ± 77.2 mm^3
MM.1S-PD-L1; day 35 post tumor cell inoculation, BCMA × CD3 bispecific 1 mg/kg
  Tumor Volume ± SEM: 627.9 ± 111.8 mm^3
MM.1S-PD-L1; day 39 post tumor cell inoculation, BCMA × CD3 bispecific 0.3 mg/kg
  Tumor Volume ± SEM: 1569.3 ± 151.8 mm^3
MM.1S-PD-L1; day 39 post tumor cell inoculation, BCMA × CD3 bispecific 1 mg/kg
  Tumor Volume ± SEM: 1436.8 ± 276.4 mm^3
